Laboratory results published in US12077512B2, “Compositions and methods for reducing tactile dysfunction, anxiety, and social impairment” (President and Fellows of Harvard College, priority 2019, dated 2024).

Experiments:
[1] = system: Advillin^Cre and Mecp^2f/y mice and control littermates; assay: Tactile prepulse inhibition (PPI): startle response to a 125 dB noise preceded by a light air puff; assay type: in vivo; details: i.p., 2 mg/kg vs saline, both Mecp2 mutants and controls
Method: FIG. 1 is a graph showing percent inhibition of the startle response to a 125 dB noise, when the startle noise is preceded by a light air puff in mice following i.p. administration of either saline or 2 mg/kg midazolam treatment. Two-way ANOVA with post-hoc Sidak's test, *, p<0.05.

[2] = system: Advillin^Cre and Mecp^2f/y mice and control littermates; assay: Magnitude of startle response to a 125 dB noise; assay type: in vivo; details: i.p., 2 mg/kg vs saline, all mice
Method: FIG. 3 is a graph showing magnitude of startle response to a 125 dB noise in mice following i.p. administration of either saline or 2 mg/kg midazolam treatment. Responses are expressed as percent of startle response to a 125 dB noise. Two-way ANOVA with post-hoc Sidak's test, *, p<0.05.

What does the source list for Cc1ncc2n1-c1ccc(Cl)cc1C(c1ccccc1F)=NC2 [midazolam]?
tactile sensitivity (percent inhibition of the startle response to a 125 dB noise when preceded by a light air puff, tactile PPI) [1]: significantly attenuated tactile sensitivity; sedation ([2]; evidenced by startle amplitude): caused significant sedation; reduction in startle amplitude ([2]; startle to 125 dB noise): ~50%
